The source of these data is article PMC4076079, “Selective inhibitors of a PAF biosynthetic enzyme lysophosphatidylcholine acyltransferase 2” (Journal of Lipid Research, 2014).

SMILES strings stand for the structures. Some results are limits rather than exact numbers.

One experiment has as its target T1, hLPCAT1 (Homo sapiens, UniProt Q8NF37).
T1 construct: expressed in transfected cells
T1 sequence (Q8NF37 1-534): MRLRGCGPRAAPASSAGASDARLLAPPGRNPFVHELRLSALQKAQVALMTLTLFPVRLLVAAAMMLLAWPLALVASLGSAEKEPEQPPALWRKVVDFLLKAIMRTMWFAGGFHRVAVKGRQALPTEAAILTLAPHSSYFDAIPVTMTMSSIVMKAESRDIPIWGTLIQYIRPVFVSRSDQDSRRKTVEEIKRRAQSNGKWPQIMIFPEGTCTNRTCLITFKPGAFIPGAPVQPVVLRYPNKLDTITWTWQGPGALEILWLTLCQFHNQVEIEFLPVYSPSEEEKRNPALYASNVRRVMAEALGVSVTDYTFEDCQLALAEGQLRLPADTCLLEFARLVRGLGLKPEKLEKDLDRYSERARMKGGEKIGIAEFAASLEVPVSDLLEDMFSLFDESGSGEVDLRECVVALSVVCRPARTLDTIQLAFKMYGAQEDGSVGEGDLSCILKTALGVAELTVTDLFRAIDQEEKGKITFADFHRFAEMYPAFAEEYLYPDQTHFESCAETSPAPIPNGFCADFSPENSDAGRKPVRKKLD
Briefly: lyso-PAFAT (acetyltransferase) activity assay, PAF product by LC-MS/MS. The following applies: for IC50: 0, 0.2, 0.6, 2, 6 and 20 μM of each compound in triplicate, LC-MS/MS, read-out: IC50, product PAF, enzyme hLPCAT1; for percentage inhibition, product PAF, hLPCAT1: 20 μM compound, microsomal fractions of nonstimulated CHO-S-PAFR cells, n = 3, mean ± SEM. In kind it is biochemical. As to the method: (§1) Microsomal protein fractions (0.5 μg) supplemented with the indicated compound concentrations were added to the reaction mixture containing 100 mM Tris-HCl (pH 7.4), 1 μM CaCl2, 0.015% Tween-20, and two substrates. For acetyltransferase activity, the substrates were 1 mM acetyl-CoA and 5 μM d4-lyso-PAF; for the acyltransferase activity of LPCAT1 or LPCAT2, the substrates were, respectively, palmitoyl-CoA and d31-16:0 LPC or arachidonoyl-CoA and d4-lyso-PAF (all 5 μM). Each lysophospholipid contained fatty acid at the sn-1 position. After incubation at 37°C for 5 min, the reactions were stopped by adding 300 μl methanol containing 17:0 LPC or 14:0/14:0 PC as an internal standard. Deuterium-labeled products were analyzed by LC-MS/MS (Waters, Milford, MA and Thermo Scientific, Waltham, MA). […]
Steps 2 to 5 screening: 96-well plate assay
Acetyltransferase and acyltransferase assays were developed in 96-well plates. The microsomal hLPCAT2, obtained from mcPAF-stimulated CHO-S-PAFR cells was used in steps 1, 2, and 5. The microsomal hLPCAT1 obtained from unstimulated CHO-S cells was used in steps 3 to 5. Each well of the 96-well plates contained 30 µl of 15 µg/ml protein, 600 nl of 2 mM compound, 30 µl buffer C, and two substrates (Fig. 1B and C).
Substrate concentrations were as follows: acetyl-CoA, 250 or 1000 µM acetyl-CoA; […]
arachidonoyl-CoA, 5 µM; palmitoyl-CoA, 5 µM; d4-lyso-PAF, 5 µM; and d31-LPC, 5 µM.
For step 5, compound concentrations were 0, 0.167, 0.67, 2, 6.7, and 20 µM. The deuterium-labeled products were measured by LC-MS/MS. Percentage inhibition (steps 2 to 4) or IC50 (step 5) was used as the hit criterion. […]
(§2) Step 7 screening: species-specific differences
(§3) To evaluate the effects on the activity of mouse or human LPCAT1 and LPCAT2, each microsomal fraction was obtained using CHO-S-PAFR cells with or without mcPAF (200 nM) stimulation for 5 min. Acetyltransferase and acyltransferase assays were performed with 20 µM of each compound. Percentage inhibition was calculated in each

The target of a further experiment is T2, mLPCAT2 (Mus musculus, UniProt Q8BYI6).
T2 construct: expressed in transfected cells; host or cells: CHO-S-PAFR cells, microsomal fraction, with or without mcPAF stimulation
T2 sequence (Q8BYI6 1-544): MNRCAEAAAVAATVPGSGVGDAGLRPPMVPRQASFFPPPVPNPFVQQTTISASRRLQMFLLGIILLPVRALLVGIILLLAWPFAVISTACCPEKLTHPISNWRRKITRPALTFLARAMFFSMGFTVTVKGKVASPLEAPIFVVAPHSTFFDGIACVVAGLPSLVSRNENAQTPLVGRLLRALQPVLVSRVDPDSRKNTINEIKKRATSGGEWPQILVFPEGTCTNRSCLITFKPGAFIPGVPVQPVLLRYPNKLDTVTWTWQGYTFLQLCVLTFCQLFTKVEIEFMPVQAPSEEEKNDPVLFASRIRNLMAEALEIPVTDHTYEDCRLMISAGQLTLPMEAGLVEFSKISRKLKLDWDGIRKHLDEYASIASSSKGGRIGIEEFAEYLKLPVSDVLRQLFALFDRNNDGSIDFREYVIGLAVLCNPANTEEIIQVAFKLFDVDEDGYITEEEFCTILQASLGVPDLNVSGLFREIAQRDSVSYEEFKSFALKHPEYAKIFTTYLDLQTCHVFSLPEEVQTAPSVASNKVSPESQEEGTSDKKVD
Briefly: acyltransferase activity assay, 16:0/20:4 alkyl-PC product. The experiment is classed as biochemical. The following applies: 20 μM compound; microsomal fractions of nonstimulated CHO-S-PAFR cells; n = 3, mean ± SEM. The procedure: as §1
arachidonoyl-CoA, 5 µM; palmitoyl-CoA, 5 µM; d4-lyso-PAF, 5 µM; and d31-LPC, 5 µM. […]
deuterium-labeled products were measured by LC-MS/MS. […]
as §2, §3

One may read the IC50 as the concentration needed to halve the response being measured. As to `CC(C)OC(=O)c1ccc(N2C(=O)C(Cl)=C(Nc3ccccc3O)C2=O)cc1` [TSI-07], on hLPCAT1, the IC50 was more than 20 µM and the “percentage inhibition, product PAF, hLPCAT1” value came to 11.9 ± 13.1 percentage. In addition, the “percentage inhibition, product 16:0/20:4 Alkyl-PC, mLPCAT2” value (“percentage inhibition … mLPCAT2” below) on mLPCAT2 is reported as 82.4 ± 5.7 percentage.
In the case of `CCCCOC(=O)c1ccc(N2C(=O)C(Cl)=C(Cl)C2=O)cc1` [TSI-11, butyl 4-(3,4-dichloro-2,5-dioxopyrrol-1-yl)benzoate], at hLPCAT1, the IC50 was 1.01 µM and the “percentage inhibition, product PAF, hLPCAT1” value turned out to be 78.6 ± 2.8 percentage. Also, the “percentage inhibition … mLPCAT2” value at mLPCAT2 was determined as 83.0 ± 3.5 percentage.
For the compound `CCCOC(=O)c1ccc(N2C(=O)C(Cl)=C(Cl)C2=O)cc1` [TSI-10], on hLPCAT1, the IC50 came to 2.42 µM and the “percentage inhibition, product PAF, hLPCAT1” value was determined as 76.1 ± 4.4 percentage. The “percentage inhibition … mLPCAT2” value on mLPCAT2 amounted to 86.7 ± 5.2 percentage.
Consider `O=C1C(Cl)=C(N2CCOCC2)C(=O)N1c1ccc(Oc2ccccc2)cc1` [TSI-02, 3-chloro-4-morpholin-4-yl-1-(4-phenoxyphenyl)pyrrole-2,5-dione], for which, on hLPCAT1, the IC50 came to 8 µM.
As to `CC(C)OC(=O)c1ccc(N2C(=O)C(Cl)=C(Cl)C2=O)cc1` [TSI-01, propan-2-yl 4-(3,4-dichloro-2,5-dioxopyrrol-1-yl)benzoate], on hLPCAT1, the concentration for half-maximal inhibition (IC50) came to 3.02 µM and the “percentage inhibition, product PAF, hLPCAT1” value is listed as 75.9 ± 5.2 percentage. For the same compound, the “percentage inhibition … mLPCAT2” value on mLPCAT2 came to 95.5 ± 1.8 percentage.
